Test results as given in patent publication US12097213B2, “Sequential treatment of cancers using 6-thio-dG, checkpoint inhibitors and radiation therapy” (The Board of Regents of the University of Texas System, priority 2020, dated 2024).

Tests used:
[1] = tested on: A375 human melanoma cancer cells; assay: Cell viability assay (CellTiter 96), A375; assay type: cell-based; conditions: treated for 4 days
Experimental: Cell viability assay. For determination of IC50 with cell proliferation assays, murine and human cancer cell lines were screened with 6-thio-dG with a 2-fold dilution series in 8 different points in 96-well plates. Cells were plated 24 hrs prior to the addition of drug, incubated for 4-5 days, and assayed using CellTiter 96® Aqueous One Solution Cell Proliferation Assay according to the manufacturer's instructions (Promega). Cell number per well ranged from 1,000 to 10,000 cells per well inversely proportional to doubling times. Dose response curves were generated and IC50s calculated using Graphpad Prism. All samples were analyzed in triplicate and standard deviations are from 2-3 independent experiments.

TBK1 = assay: Immunoblotting of DCs after co-culture; assay type: cell-based, mouse; conditions: co-culture 6 hrs with MC38 pretreated with 0.2 μM or 1 μM 6-thio-dG
Experimental: Immunoblotting. BMDC and MC38 treatment were same as “In vitro co-culture of bone marrow dendritic cells”. 6 hrs after co-culture, DC was isolated with CD11c+ positive selection kit (Stemcell). Protein sample preparation and immunoblot procedures were performed as previously described (Liu et al., 2019). Proteins were detected with rabbit monoclonal antibodies for pSTING (Cell signaling, 72971), STING (Cell signaling, 50494), pTBK1 (Cell signaling, 5483), TBK1 (Cell signaling, 3504). Protein loading was determined with antibodies against with Cyclophilin A (Cell signaling, 2175). Anti-rabbit (1:2000 in 5% BSA) was used for secondary antibody (Cell signaling, 7074). X-ray film (GeneMate, F-9024-8X10) was used to develop the membranes. Clarity Max Western ECL Substrate (Biorad, 1705062) or Supersignal West PicoPlus Chemiluminescent Substrate (Thermoscientific, 34577) was used for chemiluminescent western blot.

tumor-specific T cells = assay: IFN-γ ELISPOT of splenocytes / draining lymph node cells; assay type: in vivo, mouse; conditions: splenocytes re-stimulated with irradiated MC38 tumor cells 48 hrs; 3 mg/kg, days 7, 8, 9
Experimental: IFN-γ enzyme-linked immunosorbent spot assay (ELISPOT). MC38 tumors were injected subcutaneously on the right flank of C57BL/6. For 6-thio-dG single treatment, 3 mg/kg 6-thio-dG was intraperitoneally given on days 7, 8 and 9; for PD-L1 blockade combination therapy in MC38 model, 3 mg/kg 6-thio-dG was given on day 10 and day 11, 50 μg PD-L1 was intraperitoneally injected on day 11. 7 days after last treatment, tumor draining lymphoid and spleen from tumor-bearing mice were collected and single-cell suspension was prepared. Irradiated MC38 tumor cells and control LLC tumor cells were used to re-stimulate the tumor-specific T cells. 1.5×10^5 draining lymph nodes cells or splenocytes and 7.5×10^4 irradiated tumor cells were co-cultured for 48 hrs, and ELISPOT assay was performed using the IFN-γ ELISPOT kit (BD Bioscience) according to the manufacturer's instructions. IFN-γ spots were enumerated with the CTL-ImmunoSpot® S6 Analyzer (Cellular Technology Limited).

[2] = tested on: tumor-derived xenograft models; conditions: many tumor-derived xenograft models; cited from earlier work
A375 tumor cells = assay: A375 tumor model in NSG-SGM3 and humanized NSG-SGM3 mice; assay type: in vivo, mouse
Experimental: FIGS. 13A-F (related to FIGS. 6A-E). (FIGS. 13A-C) 12 weeks after humanized mouse reconstitution, human CD45+ cells and CD3+ T cells in mouse peripheral blood were tested by flow cytometry. (FIG. 13D) Cell viability (IC50) of 6-thio-dG in A375 human melanoma cancer cells. Cells were treated with 6-thio-dG for 4 days. (FIG. 13E) NSG-SGM3 mice (n=5) were inoculated with 2×10^6 A375 tumor cells and treated with 6-thio-dG (3 mg/kg, day 7 and day 8) or anti-PD-L1 plus anti-CTLA-4 (200 μg i.p., day 10 and day 13) or the combination of 6-thio-dG plus anti-PD-L1 and anti-CTLA-4. Tumor growth was measured every 3 days. (FIG. 13F) Humanized NSG-SGM3 mice (n=5-7) were inoculated with 2×10^6 A375 tumor cells and treated with 6-thio-dG (3 mg/kg, day 13 and day 14) or anti-PD-L1 plus anti-CTLA-4 (200 μg i.p., day 16 and day 19) or the combination of 6-thio-dG plus anti-PD-L1 and anti-CTLA-4. Tumor growth was measured every 3 days. Data were shown as mean±SEM. P value was determined by two-tailed unpaired t test (FIGS. 13B and 13C, n.s. p>0.05) or two-way ANOVA (FIG. 13F).
Humanized mouse tumor models. Humanized mouse reconstitution was previously described (Qiao et al., 2019). Briefly, four-week-old NSG-SGM3 female mice were irradiated with 100 cGy (X-ray irradiation with X-RAD 320 irradiator) one day prior to human CD34+ cells transfer. […] Tumor volumes were measured twice a week. […]

[3] = tested on: tumor infiltrating lymphocytes (TILs); assay: Flow cytometry of tumor infiltrating cells in MC38 tumor-bearing mice; assay type: in vivo, mouse
Experimental: Tumor digestion. Tumor tissues were excised and digested with 1 mg/mL Collagenase I (Sigma) and 0.5 mg/mL DNase I (Roche) in the 37° C. for 30 mins, tumor was then passed through a 70 μm cell strainer to remove large pieces of undigested tumor. Tumor infiltrating cells were washed twice with PBS containing 2 mM EDTA. Flow cytometry analysis. Single cell suspensions of cells were incubated with anti-FcγIII/II receptor (clone 2.4G2) for 15 minutes to block the non-specific binding before staining with the conjugated antibodies, and then incubated with indicated antibody for 30 mins at 4° C. in the dark. Fixable viability Dye eFlour 506 or eFlour780 (eBioscience) was used to exclude the dead cells. Foxp3 and Ki67 were stained intracellularly by using True-Nuclear transcription factor buffer set (BioLegend) following the manufacturer's instructions. Data were collected on CytoFLEX flow cytometer (Beckman Coulter, Inc) and analyzed by using FlowJo (Tree Star Inc., Ashland, OR) software.

[4] = 6 days after the last of three daily doses, 3 mg/kg

With `Nc1nc2c(ncn2[C@H]2C[C@H](O)[C@@H](CO)O2)c(=S)[nH]1` [6-thio-dG, 6-thio-2′-deoxyguanosine] the “sensitivity in vitro (cell viability)” value [1] was “sensitive”, the “TBK1 phosphorylation in DCs” value (TBK1) was “increase” and the “tumor-specific cytotoxic T cell responses (IFN-γ producing T cells)” value (tumor-specific T cells) was “enhanced”. The “side effects in xenograft models” value [2] was “minimal side effects”, the “tumor response in xenograft models” value [2] was “rapid tumor shrinkage or growth arrest” and the “tumor growth / tumor burden” value (A375 tumor cells; humanized NSG-SGM3 mice, 6-thio-dG 3 mg/kg day 13 and 14, anti-PD-L1 plus anti-CTLA-4 200 μg i.p. day 16 and 19) was “partially delayed tumor growth”. For the same compound, the tumor growth (A375 tumor cells; immunocompromised NSG-SGM3 mice, 3 mg/kg, day 7 and day 8) was “did not observe any effect”, the “Treg cells (CD4+ Foxp3+)” value ([3]; 3 mg/kg, days 7, 8, 9) was “no significant changes” and the “tumor infiltrating NK cells” value ([3]; 3 mg/kg, days 7, 8, 9) was “increased”. For the same compound, the “PD-1 expression on CD8+ T cells (frequency and per cell basis)” value ([3]; 3 mg/kg, days 7, 8, 9, 7 days after first treatment) was “upregulated”, the “CD8+ T cell proliferation (Ki67 expression)” value ([3]; 6 days after last treatment, 3 mg/kg) was “significant upregulation” and the “frequency of CD3+ T cells in TILs” value [3, 4] was “increase”. For the same compound, the “frequency of CD8+ T cells in TILs” value [3, 4] was “increase”, the “YFP+ T cells in the tumor” value ([3]; IFN-γ YFP reporter mice, eleven days after last treatment) was “significantly increased” and the “tumor-specific (OVA tetramer) CD8+ T cells in tumors” value ([3]; MC38-OVA tumor model, 6 days after 6-thio-dG treatment) was “increased”.
